A short description of series [1]: Physicochemical characteristics: solubility. From the text:
The physicochemical characteristics of UHA4022 are as follows.

Series [2] has as its system 3T3-L1 precursor adipocyte. The series can be described thus: Example II-3: index gene expression in adipocytes after maturation, with or without adrenaline stimulation, real-time RT-PCR. The class given is cell-based, mouse. The settings on record: matured cells, 1 μM L-adrenaline for 2 hours; control 3.1 times. The procedure:
Since it was evaluated in Example II-2 whether the derivative-containing composition induces the differentiation from the white adipocytes into the brown-like adipocytes using the cells immediately after the induction of the differentiation, it was evaluated in Example II-3 whether the relevant induced cell maintains the trait of the brown-like adipocytes even after maturation using matured adipocytes. The evaluation was made using as indexes the expression level of each gene of FGF-21, PGC-1α, and cell death-inducing DFFA-like effector a (Cidea) which is a brown-like adipocyte marker gene as well as the expression level of […] gene when adding adrenaline to the adipocyte after maturation based on the understanding that the brown-like adipocyte responds to the adrenaline stimulation thereby increasing the expression level of UCP1 gene, whereby the induction of the differentiation of the white adipocytes into the brown-like adipocytes was confirmed. […]
Based on the Ct values (Threshold Cycle: number of cycles for achieving a certain amplification level (threshold)) of […], FGF-21, PGC-1α, PGC-1β, Cidea, and UCP1 in each cell obtained, the relative value of each gene expression level of FGF-21, PGC-1β, PGC-1α, Cidea, and UCP1 was calculated.
On the technique in general: Real-time PCR tracks product formation cycle by cycle.

Regarding `Oc1ccc(/C=C\c2c3c(cc4c2C(c2ccc(O)cc2)Cc2cc(O)cc(O)c2-4)-c2c(O)cc(O)cc2CC3c2ccc(O)cc2)cc1` (stereo not shown) [UHA4022], the Solubility in chloroform entry in series [1] (Chloroform) is “Hardly soluble”. Further, the “Solubility in DMSO” value in series [1] (DMSO) is recorded as “Soluble”. In series [1] (Ethanol), the Solubility in ethanol entry is recorded as “Soluble”. Further, the “Solubility in ethyl acetate” value in series [1] (Ethyl acetate) is listed as “Hardly soluble”. For the same compound, the Solubility in methanol result in series [1] (Methanol) is “Soluble”. Moreover, the Solubility in water entry in series [1] (Water) was “Hardly soluble”.
In the case of `CN(CCOc1ccc(CC2SC(=O)NC2=O)cc1)c1ccccn1` (stereo not shown) [rosiglitazone], the “UCP1 gene expression-increasing effect of adrenaline, presence vs absence of adrenaline” value in series [2] is listed as 6.2 times.

Source of the values: patent US20160053227A1, “AGENT FOR INDUCING DIFFERENTIATION OF WHITE ADIPOCYTES INTO BROWN-LIKE ADIPOCYTES” (UHA MIKAKUTO CO., LTD., priority 2013, published 2016).
